Results as given in patent US10988523B2, “Modified lipidated Relaxin B chain peptides and their therapeutic use” (Sanofi, priority 2018, dated 2021).
*1 amine or outer side, *2 acyl side, *3 side chain or, on linkers, in order; H or OH if unused. Where a SMILES comes first, the peptide text is derived from it. Side-chain parts run from the residue outwards. [ ]: non-standard residue; d: D form. The star is where a group is joined. X6 = CCCCCCCCCCCCCCC(=O)N[C@@H](CCC(=O)N[C@@H](CCC(=O)NCCCC[C@H](NC(=O)CC[C@H](NC(=O)CC[C@H](NC(=O)CCC(=O)NCCCOCCOCCOCCCNC(=O)CCC(=O)NCCCOCCOCCOCCCNC(=O)CCC(=O)NCCCOCCOCCOCCCN*)C(=O)O)C(=O)O)C(N)=O)C(=O)O)C(=O)O; PEG12 = NCCOCCOCCOCCOCCOCCOCCOCCOCCOCCOCCOCCOCCC(=O)O; γGlu = O=C(O)[C@H](CCC(=O)[*:2])N[*:1]; 1Nal = N[C@@H](Cc1cccc2ccccc12)C(=O)O; Stearoyl = CCCCCCCCCCCCCCCCCC(=O)*; Palmitoyl = CCCCCCCCCCCCCCCC(=O)*; αMeK = C[C@](N)(CCCCN)C(=O)O; Nle = CCCC[C@H](N)C(=O)O; AEEA = NCCOCCOCC(=O)O; Aib = CC(C)(N)C(=O)O

Experiments:
[1] = Pharmacokinetic (PK) determination after i.v. or s.c. administration to rats; type: in vivo, Sprague Dawley rats; details: Sprague Dawley, Rat PK; for C0 / half-life: iv, 1 mg/kg i.v.; for C0: extrapolated plasma concentration at t=0, read-out: C0; for half-life / Cmax / Tmax / bioavailability: plasma; for half-life: read-out: T½ (converted); for Cmax / Tmax: sc, 3 mg/kg s.c.; for bioavailability: subcutaneous, 3 mg/kg s.c. vs 1 mg/kg i.v., dose-corrected AUC ratio
Outline: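 Non-compartmental analysis of plasma LC/MS data (protein precipitation, BLQ taken as zero) gave T½, C0 (i.v.), Cmax/Tmax (s.c.) and F% from dose-corrected AUCs. Dosing: 3 mg/kg s.c. or 1 mg/kg i.v. in PBS to Sprague Dawley rats, purity- and salt-corrected.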

RXFP1 = molecular target: T1, RXFP1 (Homo sapiens, UniProt Q9HBX9); assay: OVCAR5 cAMP assay (HTRF), RXFP1 agonist activity; type: cell-based; details: for EC50: OVCAR5 cells, cAMP HTRF, read-out: EC50 (nM), OVCAR 5 cells (cAMP); for Emax: OVCAR-5, maximal cAMP relative to H2-relaxin maximum (100%), read-out: EMax, OVCAR 5 cells (cAMP)
T1 construct: OVCAR5 cells expressing endogenous RXFP1; endogenous in cells; host or cells: OVCAR5 cells
T1 sequence (Q9HBX9 1-757): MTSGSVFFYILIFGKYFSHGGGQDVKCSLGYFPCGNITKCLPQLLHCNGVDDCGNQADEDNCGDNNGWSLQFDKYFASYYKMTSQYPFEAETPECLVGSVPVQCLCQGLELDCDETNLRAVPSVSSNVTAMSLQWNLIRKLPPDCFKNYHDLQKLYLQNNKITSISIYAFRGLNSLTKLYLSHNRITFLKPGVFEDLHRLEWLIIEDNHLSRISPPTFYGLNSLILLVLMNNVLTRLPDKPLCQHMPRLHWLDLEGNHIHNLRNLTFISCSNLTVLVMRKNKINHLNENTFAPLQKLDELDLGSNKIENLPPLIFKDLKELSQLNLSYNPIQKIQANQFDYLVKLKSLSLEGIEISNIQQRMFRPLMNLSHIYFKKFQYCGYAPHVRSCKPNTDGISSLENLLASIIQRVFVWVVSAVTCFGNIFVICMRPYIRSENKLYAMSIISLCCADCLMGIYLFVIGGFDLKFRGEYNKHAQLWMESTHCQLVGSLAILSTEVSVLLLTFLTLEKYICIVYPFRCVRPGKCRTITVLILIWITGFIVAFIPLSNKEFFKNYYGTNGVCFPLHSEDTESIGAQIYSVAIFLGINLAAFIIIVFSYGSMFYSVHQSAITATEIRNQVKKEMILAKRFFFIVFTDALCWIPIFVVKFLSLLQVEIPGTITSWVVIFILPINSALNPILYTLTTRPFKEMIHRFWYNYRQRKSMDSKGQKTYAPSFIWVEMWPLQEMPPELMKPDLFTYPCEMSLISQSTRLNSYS
Outline: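 cAMP accumulation readout: after 1 mM IBMX for 40 min, endogenous-RXFP1 OVCAR5 cells got rising peptide concentrations without FCS, 30 min, 37° C, then lysis with HTRF cAMP reagents. Nonlinear regression gave EC50; Emax expressed relative to H2-relaxin maximum, same occasion.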

SMILES	C0 [1] [nM]	half-life [1] [h]	Cmax [1] [nM]	Tmax [1] [h]	bioavailability [1] [%]	EC50 (RXFP1) [nM]	Emax (RXFP1) [%]
CCCCCCCCCCCCCCCC(=O)N[C@@H](CCC(=O)NCCCC[C@H](NC(=O)CC[C@H](NC(=O)CC[C@H](NC(=O)CC[C@H](NC(=O)COCCOCCNC(=O)COCCOCCNC(=O)COCCOCCNC(=O)COCCOCCNC(=O)[C@H](CCCCNC(C)=O)NC(=O)[C@H](C)NC(=O)[C@H](CCCNC(=N)N)NC(=O)[C@](C)(CCCCN)NC(=O)[C@H](CO)NC(=O)[C@H](Cc1ccccc1)NC(=O)[C@@H](NC(=O)[C@H](CO)NC(=O)[C@H](CCCC)NC(=O)CNC(=O)[C@H](CCC(=O)O)NC(=O)C(C)(C)NC(=O)C(C)(C)NC(=O)[C@@H](NC(=O)[C@H](CCCCNC(C)=O)NC(=O)[C@H](C)NC(=O)[C@H](CCCNC(=N)N)NC(=O)[C@@H](NC(=O)[C@H](CCCCN)NC(=O)[C@H](CCC(=O)O)NC(=O)[C@H](CCCNC(=N)N)NC(=O)CNC(=O)[C@H](CCC(=O)O)NC(=O)[C@H](CC(C)C)NC(C)=O)C(C)C)[C@@H](C)CC)[C@@H](C)O)C(=O)O)C(=O)O)C(=O)O)C(N)=O)C(=O)O [compound 149] (Ac-LEGREKVRAK(Ac)I[Aib][Aib]EG[Nle]STFS[αMeK]RAK(Ac)[AEEA][AEEA][AEEA][AEEA][γGlu][γGlu][γGlu]K([γGlu-Palmitoyl])-NH2)	3330	4.33	2500	6	128	0.11	87
CCCCCCCCCCCCCCC(=O)N[C@@H](CCC(=O)N[C@@H](CCC(=O)NCCCC[C@H](NC(=O)CC[C@H](NC(=O)CC[C@H](NC(=O)CCC(=O)NCCCOCCOCCOCCCNC(=O)CCC(=O)NCCCOCCOCCOCCCNC(=O)CCC(=O)NCCCOCCOCCOCCCNC(=O)[C@H](CCCCNC(C)=O)NC(=O)[C@H](C)NC(=O)[C@H](CCCNC(=N)N)NC(=O)[C@](C)(CCCCN)NC(=O)[C@H](CO)NC(=O)[C@H](Cc1ccccc1)NC(=O)[C@@H](NC(=O)[C@H](CO)NC(=O)[C@H](CCC(N)=O)NC(=O)CNC(=O)[C@H](CCC(=O)O)NC(=O)C(C)(C)NC(=O)C(C)(C)NC(=O)[C@@H](NC(=O)[C@H](CCCCNC(C)=O)NC(=O)[C@H](C)NC(=O)[C@H](CCCNC(=N)N)NC(=O)[C@@H](NC(=O)[C@H](CCCCN)NC(=O)[C@H](CCC(=O)O)NC(=O)[C@H](CCCNC(=N)N)NC(=O)CNC(=O)[C@H](CCC(=O)O)NC(=O)[C@H](CC(C)C)NC(C)=O)C(C)C)[C@@H](C)CC)[C@@H](C)O)C(=O)O)C(=O)O)C(N)=O)C(=O)O)C(=O)O [compound 184] (Ac-LEGREKVRAK(Ac)I[Aib][Aib]EGQSTFS[αMeK]RAK(Ac)-X6)	4700	7.3	2800	7	71	–	100
CCCCCCCCCCCCCCCC(=O)N[C@@H](CCC(=O)NCCCC[C@H](NC(=O)CC[C@H](NC(=O)CC[C@H](NC(=O)CC[C@H](NC(=O)COCCOCCNC(=O)COCCOCCNC(=O)COCCOCCNC(=O)COCCOCCNC(=O)[C@H](CCCCNC(C)=O)NC(=O)[C@H](CCCCN)NC(=O)[C@H](CCCNC(=N)N)NC(=O)[C@](C)(CCCCN)NC(=O)[C@H](CO)NC(=O)[C@H](Cc1c[nH]c2ccccc12)NC(=O)[C@@H](NC(=O)[C@H](CO)NC(=O)[C@H](CCCC)NC(=O)CNC(=O)[C@H](CCC(=O)O)NC(=O)C(C)(C)NC(=O)C(C)(C)NC(=O)[C@@H](NC(=O)[C@H](CCCCNC(C)=O)NC(=O)[C@H](C)NC(=O)[C@H](CCCNC(=N)N)NC(=O)[C@@H](NC(=O)[C@H](CCCCN)NC(=O)[C@H](CCC(=O)O)NC(=O)[C@H](CCCNC(=N)N)NC(=O)CNC(=O)[C@H](CCC(=O)O)NC(=O)[C@H](CC(C)C)NC(C)=O)C(C)C)[C@@H](C)CC)[C@@H](C)O)C(=O)O)C(=O)O)C(=O)O)C(N)=O)C(=O)O [compound 136] (Ac-LEGREKVRAK(Ac)I[Aib][Aib]EG[Nle]STWS[αMeK]RKK(Ac)[AEEA][AEEA][AEEA][AEEA][γGlu][γGlu][γGlu]K([γGlu-Palmitoyl])-NH2)	3000	2.9	1870	8	86	0.03	92

Further lines, results first:

C0 [1] [nM]	half-life [1] [h]	Cmax [1] [nM]	Tmax [1] [h]	bioavailability [1] [%]	EC50 (RXFP1) [nM]	Emax (RXFP1) [%]	SMILES
2900	2.88	2200	7	65	–	79	CCCCCCCCCCCCCCCCCC(=O)N[C@@H](CCC(=O)N[C@@H](CCC(=O)N[C@@H](CCC(=O)NCCCC[C@H](NC(=O)CCOCCOCCOCCOCCOCCOCCOCCOCCOCCOCCOCCOCCNC(=O)[C@H](CCCCN)NC(=O)[C@H](CCCNC(=N)N)NC(=O)C(C)(C)NC(=O)[C@H](CO)NC(=O)[C@H](Cc1cccc2ccccc12)NC(=O)[C@@H](NC(=O)[C@H](CO)NC(=O)[C@H](CCCC)NC(=O)CNC(=O)[C@H](CCC(=O)O)NC(=O)C(C)(C)NC(=O)C(C)(C)NC(=O)[C@@H](NC(=O)[C@H](CCCCNC(C)=O)NC(=O)[C@H](C)NC(=O)[C@H](CCCNC(=N)N)NC(=O)[C@@H](NC(=O)[C@H](CCCCN)NC(=O)[C@H](CCC(=O)O)NC(=O)[C@H](CCCNC(=N)N)NC(=O)CNC(=O)[C@H](CCC(=O)O)NC(=O)[C@H](CC(C)C)NC(C)=O)C(C)C)[C@@H](C)CC)[C@@H](C)O)C(N)=O)C(=O)O)C(=O)O)C(=O)O [compound 45] (Ac-LEGREKVRAK(Ac)I[Aib][Aib]EG[Nle]ST[1Nal]S[Aib]RK[PEG12]K([γGlu-γGlu-γGlu-Stearoyl])-NH2)
3700	6.4	1800	5	81	–	74	CCCCCCCCCCCCCCCC(=O)N[C@@H](CCC(=O)N[C@@H](CCC(=O)N[C@@H](CCC(=O)NCCCC[C@H](NC(=O)CCOCCOCCOCCOCCOCCOCCOCCOCCOCCOCCOCCOCCNC(=O)[C@H](CCCCN)NC(=O)[C@H](CCCNC(=N)N)NC(=O)C(C)(C)NC(=O)[C@H](CO)NC(=O)[C@H](Cc1c[nH]c2ccccc12)NC(=O)[C@@H](NC(=O)[C@H](CO)NC(=O)[C@H](CCCC)NC(=O)CNC(=O)[C@H](CCC(=O)O)NC(=O)C(C)(C)NC(=O)C(C)(C)NC(=O)[C@@H](NC(=O)[C@H](CCC(N)=O)NC(=O)[C@H](C)NC(=O)[C@H](CCCNC(=N)N)NC(=O)[C@@H](NC(=O)[C@H](CCCCN)NC(=O)[C@H](CCC(=O)O)NC(=O)[C@H](CCCNC(=N)N)NC(=O)CNC(=O)[C@H](CCC(=O)O)NC(=O)[C@H](CC(C)C)NC(C)=O)C(C)C)[C@@H](C)CC)[C@@H](C)O)C(N)=O)C(=O)O)C(=O)O)C(=O)O [compound 24] (Ac-LEGREKVRAQI[Aib][Aib]EG[Nle]STWS[Aib]RK[PEG12]K([γGlu-γGlu-γGlu-Palmitoyl])-NH2)
3000	3.89	1630	7	70	0.07	85	CCCCCCCCCCCCCCCCCC(=O)N[C@@H](CCC(=O)N[C@@H](CCC(=O)N[C@@H](CCC(=O)NCCOCCOCC(=O)NCCOCCOCC(=O)NCCOCCOCC(=O)NCCCC[C@H](NC(=O)[C@H](CCCCN)NC(=O)[C@H](CCCNC(=N)N)NC(=O)C(C)(C)NC(=O)[C@H](CO)NC(=O)[C@H](Cc1c[nH]c2ccccc12)NC(=O)[C@@H](NC(=O)[C@H](CO)NC(=O)[C@H](CCCC)NC(=O)CNC(=O)[C@H](CCC(=O)O)NC(=O)C(C)(C)NC(=O)C(C)(C)NC(=O)[C@@H](NC(=O)[C@H](CCC(N)=O)NC(=O)[C@H](C)NC(=O)[C@H](CCCNC(=N)N)NC(=O)[C@@H](NC(=O)[C@H](CCCCN)NC(=O)[C@H](CCC(=O)O)NC(=O)[C@H](CCCNC(=N)N)NC(=O)CNC(=O)[C@H](CCC(=O)O)NC(=O)[C@H](CC(C)C)NC(C)=O)C(C)C)[C@@H](C)CC)[C@@H](C)O)C(N)=O)C(=O)O)C(=O)O)C(=O)O [compound 74] (Ac-LEGREKVRAQI[Aib][Aib]EG[Nle]STWS[Aib]RKK([AEEA-AEEA-AEEA-γGlu-γGlu-γGlu-Stearoyl])-NH2)
